Experiment [1] concerns HIF-α prolyl-hydroxylase (HIF-PH) of cell extract. The experiment in a line: Modifying activity (HIF-PH) of cell extract on HIF substrate (Gal/HIF-1α549-582/VP16 or 19:WT), pVHL capture assay. It counts as biochemical, mammalian. The following applies: for pVHL binding after treatment of Gal-Hif549-582-VP16 with cell extract in the presence of inhibitor: SDS-PAGE and autoradiography; for Disruption of HIF-VHL interaction: In-vitro inhibitor; for effect of pretreatment of extracts on modifying activity: clotrimazole 10 μM, methyl-viologen 1 mM, NADase 20 mU/ml. As for the experimental part: The unlabelled HIF-1α substrate was immunopurified on beads, washed, and aliquots incubated under different test conditions in buffer or cell extract. After further washing, the beads were assayed for ability to interact with 35-S labelled pVHL IVTT (21) which was then visualised by fluorography.
The capture of labelled pVHL by different HIF substrates was monitored after exposure to various test conditions.
We went on to test a series of 2-oxoglutarate analogues which act as competitive inhibitors of this class of enzyme (29) for ability to inhibit HIF-PH as assessed by the ability of cell extracts to modify either HIF polypeptide (19:WT) or a HIF fusion protein (Gal/HIF-1α549-582/VP16) so as to promote pVHL capture. […] In one such experiment the effect of N-oxalylglycine on pVHL capture by a biotinylated HIF polypeptides as substrate was monitored. The WT:19 and 19:Pro564Hyp polypeptides described above were used as substrates. […] The effect of dimethyl-oxalyglycine on HIF-1α expression was also studied. HIF-1α immunoblot analysis of extracts of Hep3B and U2OS cells exposed to dimethyl-oxalylgylcine (0, 0.1 or 1.0 mM) for 6 hours was carried out. […]

Experiment [2] deals with HIF hydroxylase (HPH activity). The experiment in a line: HIF hydroxylase (HPH) inhibition, statements of the description. It counts as biochemical.
The subject of the next experiment is HIF. The experiment in a line: Induction of HIF in tissue culture by esterified equivalents. It counts as cell-based. The following applies: In-vivo esterified equivalent.
The target of a further experiment is T1, HIF-1α/pVHL interaction (Homo sapiens, UniProt P40337).
T1 construct: made in house; host or cells: TNT rabbit reticulocyte lysate (Promega), in vitro transcription/translation
T1 sequence (P40337 whole entry): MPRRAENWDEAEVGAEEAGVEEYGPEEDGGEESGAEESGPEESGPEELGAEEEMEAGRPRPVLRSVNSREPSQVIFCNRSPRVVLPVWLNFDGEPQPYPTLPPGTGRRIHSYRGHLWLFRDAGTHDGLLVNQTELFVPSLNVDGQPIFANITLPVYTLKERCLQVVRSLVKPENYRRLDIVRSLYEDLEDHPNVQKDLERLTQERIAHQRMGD
The experiment in a line: Polypeptide blocking assay of HIF-1α and pVHL.HA IVTT mixture, anti-HA immunoprecipitation. It counts as binding. As to the method: Further studies were performed using synthetic polypeptides as inhibitors of the HIF-1α/pVHL interaction (23). […] Results for a series of polypeptides derived from this domain are summarized in FIG. 1B and implicate a similar minimal interaction domain. […] This polypeptide comprises HIF-1α polypeptide residues 556 to 574 and its ability to block binding following exposure to a variety of direct oxidation conditions was assessed.
We synthesized a polypeptide (HIF-1α residues 556-574), containing a trans-4-hydroxy-S-proline residue at position 564 (19:Pro564Hyp), since the trans-4-hydroxylation is the commonest enzymatic proline oxidation (25). A polypeptide blocking assay was carried out using the 19:Pro564Hyp modified polypeptide and, as a control, the unmodified polypeptide without the trans-4-hydroxylation (19:WT). The 19:WT polypeptide was either incubated with cell extract before the binding assay or was untreated. The 19:Pro564Hyp polypeptide was added to a mixture of HIF-1α and pVHL-HA IVTTs at a concentration of 1, 0.25, 0.05 or 0.01 μM and the cell extract treated or untreated 19:WT polypeptide at a concentration of 0.5 μM. Interaction of HIF-1α with pVHL was then assayed by anti-HA immunoprecipitation. […] A pVHL capture assay was then carried out using biotinylated synthetic polypeptides. The same polypeptides, 19:Pro564Hyp and 19:WT were assessed for the ability to capture wild type or mutant (Pro86His) pVHL. […] In both cases capture was specific for wild type, as opposed to mutant, pVHL.
• 1. G. L. Semenza, Genes Dev 14, 1983-91. (2000). • 2. N. V. Iyer, et al., Genes Dev. 12, 149-162 (1997). • 3. E. Maltepe, J. V. Schmidt, D. Baunoch, C. A. Bradfield, M. C. Simon, Nature 386, 403-407 (1997). • 4. G. L. Wang, B.-H. Jiang, E. A. Rue, G. L. Semenza, Proc. Natl. Acad. Sci. USA 92, 5510-5514 (1995). • 5. S. Salceda, J. Caro, J. Biol. Chem. 272, 22642-22647 (1997). • 6. L. E. Huang, J. Gu, M. Schau, H. F. Bunn, Proc. Natl. Acad. Sci. USA 95, 7987-7992 (1998). • 7. M. S. Wiesener, et al., Blood 92, 2260-2268 (1998). • 8. P. H. Maxwell, et al., Nature 399, 271-275 (1999). • 9. K. Iwai, et al., Proc. Natl. Acad. Sci. USA 96, 12436-12441 (1999). • 10. J. Lisztwan, G. Imbert, C. Wirbelauer, M. Gstaiger, W. Krek, Genes Dev 13, 1822-33 (1999). • 11. M. E. Cockman, et al., J Biol Chem (2000). • 12. M. Ohh, et al., Nat Cell Biol 2, 423-7. (2000). • 13. T. Kamura, et al., Proc Natl Acad Sci USA 97, 10430-5. (2000). • 14. K. Tanimoto, Y. Makino, T. Pereira, L. Poellinger, Embo J 19, 4298-309. (2000). • 15. M. A. Goldberg, S. P. Dunning, H. F. Bunn, Science 242, 1412-1415 (1988). • 16. G. L. Wang, G. L. Semenza, Blood 82, 3610-3615 (1993). • 17. G. L. Semenza, Cell 98, 281-284 (1999). • 18. Hypoxia (<0.1% oxygen) was obtained in a workstation with O2, CO2 and temperature control (Ruskinn Technologies, Leeds, UK). For hypoxic harvest, buffers were preincubated in the chamber overnight. RCC4-VHL.HA, labelling conditions and co-immunoprecipitation assays have been described previously (11); in the current study 12.5 μM MG132 was used for proteasomal inhibition. For standard harvest, the cells were removed from the chamber after hypoxic exposure, prior to cell lysis. Co-immunoprecipitation assays on all lysates were performed at 4° C. under ambient oxygen conditions. […] When programming in hypoxia, reaction mix was preincubated in the workstation for 10 minutes before addition of the DNA template. […]

For experiment [3], the system named is collagen prolyl-hydroxylase (CPH). As to conditions: cited from earlier work.

The values that follow come from patent US9844546B2, “Antibody against human HIF hydroxylase” (OXFORD UNIVERSITY INNOVATION LIMITED, priority 2001, dated 2017).

`C[C@@H](NC(=O)C(=O)O)C(=O)O` [N-oxalyl-2R-alanine]: in experiment [1] (N-oxalylglycine 0.2-1 mM, overcome by 5 mM 2-oxoglutarate), the “inhibition of modifying activity of cell extract on 19:WT (pVHL capture)” value is “not”. The “inhibition of HIF hydroxylase / HPH” value in experiment [2] is “also an inhibitor”.

Regarding `COC(=O)CNC(=S)C(=O)OC` [Is1], the “pVHL binding after treatment of Gal-Hif549-582-VP16 with cell extract in the presence of inhibitor” value in experiment [1] is given as “reduced pVHL binding”.

As to `COC(=O)C(=O)NC(C)C(=O)OC` [Methylmethoxalyl-D/L-alanine], in the experiment with HIF, the “Induction of HIF in tissue culture” value was “No”. In the case of `O=C(O)c1ccnc(C(=O)O)c1` [2, 4 pyridine dicarboxylic acid], the “Disruption of HIF-VHL interaction” value in experiment [1] is recorded as “Yes”. On to `CCOC(=O)c1ccc(O)c(O)c1` [ethyl dihydroxybenzoate], for which the “pVHL binding after treatment of Gal-Hif549-582-VP16 with cell extract in the presence of inhibitor” value in experiment [1] is reported as “reduced pVHL binding”. For the molecule `COCCNC(=O)c1ccncc1C(=O)NCCOC` [Is8], in experiment [1], the “pVHL binding after treatment of Gal-Hif549-582-VP16 with cell extract in the presence of inhibitor” value is “reduced pVHL binding”.

With `N[C@@H](CCC(=O)N[C@@H](CS)C(=O)NCC(=O)O)C(=O)O` [glutathione, gamma-glutamyl-cysteinyl-glycine], in experiment [2], the “inhibition of HIF hydroxylase / HPH” value was “inhibitors of HPH”. Same read-out and setting: for `CC(C)[C@H](NC(=O)C(=O)O)C(=O)O` [(S)-oxalovaline] the value was “little or no activity”. Consider `C[C@H](NC(=O)C(=O)O)C(=O)O` [NK81, oxalyl L-alanine], for which the “Disruption of HIF-VHL interaction” value in experiment [1] is reported as “Yes”. For the molecule `CCOC(=O)c1ccc(C(=O)OCC)nc1` [2, 5 diethylpyridine dicarboxylate], the “Induction of HIF in tissue culture” value in the experiment on HIF is given as “No”. Turning to `C[n+]1ccc(-c2cc[n+](C)cc2)cc1` [methyl-viologen, reference compound], the “effect of pretreatment of extracts on modifying activity” value in experiment [1] is on record as “did not significantly affect activity”. Regarding `CCOC(=O)c1cccc(C(=O)OCC)n1` [2, 6 diethylpyridine dicarboxylate], the “Induction of HIF in tissue culture” value with HIF is “No”. For the molecule “34 residue sequence encompassing amino acids 549-582: synthetic polypeptide, HIF-1α residues 549-582”, the “blocking of HIF-1α/pVHL interaction by polypeptide after exposure to cell extract” value with HIF-1α/pVHL interaction (cell extract supplemented with Fe(II)) is reported as “blocking activity was strikingly induced”. In addition, the “blocking of HIF-1α/pVHL interaction by polypeptide not exposed to cell extract” value with HIF-1α/pVHL interaction (untreated polypeptide) is “unable to block interaction”. With `CC(C)[C@H](NC(=O)C(=O)O)C(=O)O` [NK80], the “Disruption of HIF-VHL interaction” value in experiment [1] is on record as “No”. Consider `O=C(NO)c1ccccc1` [benzohydroxamic acid], for which the “pVHL binding after treatment of Gal-Hif549-582-VP16 with cell extract in the presence of inhibitor” value in experiment [1] is “reduced pVHL binding”. As to `CCOC(=O)c1ccnc(C(=O)OCC)c1` [2, 4 diethylpyridine dicarboxylate, 2,4-diethylpyridine dicarboxylate], the “Induction of HIF in tissue culture” value in the experiment on HIF is on record as “No”. Also, the “inhibition of HIF hydroxylase / HPH” value in experiment [2] was “found not to inhibit HPH”. Besides, the “inhibition of CPH” value in experiment [3] is on record as “known CPH inhibitor”. As to `O=C(O)CNC(=O)C(=O)O` [NK87, oxalylglycine], in experiment [1], the “Disruption of HIF-VHL interaction” value was “Yes” and the “pVHL binding after treatment of Gal-Hif549-582-VP16 with cell extract in the presence of inhibitor” value was “reduced binding of pVHL”. In addition, in experiment [1] (plus additional 2-oxoglutarate), the “pVHL binding after treatment with cell extract in the presence of inhibitor and additional 2-oxoglutarate” value was “strong binding”.

Take `O=C(O)CNC(=S)C(=O)O` [Is3]: the “pVHL binding after treatment of Gal-Hif549-582-VP16 with cell extract in the presence of inhibitor” value in experiment [1] is recorded as “reduced pVHL binding”. Regarding `C[C@@H](NC(=O)C(=O)O)C(=O)O` [NK82, oxalyl D-alanine], the “Disruption of HIF-VHL interaction” value in experiment [1] is “No”. Consider `CC(NC(=O)C(=O)O)C(=O)O` (racemic) [(RS)-N-oxaloalanine], for which the “inhibition of CPH” value in experiment [3] was “poor inhibitor”. As to `Clc1ccccc1C(c1ccccc1)(c1ccccc1)n1ccnc1` [clotrimazole, reference compound], in experiment [1], the “effect of pretreatment of extracts on modifying activity” value is “did not significantly affect activity”.
